Test results reported in patent US7964723B2, “And practical process for exclusively producing (S)-9-fluoro-3-methyl-10-(4-methyl-1-piperazinyl)-7-oxo-2,3-dihydro-7H-pyrido-[1,2,3,de][1,4]benzoxazine-6-carboxylic acid hemihydrate” (Apeloa-Kangyu, priority 2008, dated 2011).
Like-named read-outs stand apart in the source and are kept apart here.

What was measured:
[1] = cited from earlier work
[2] = loss of crystal water on drying; format: physicochemical; conditions: 50° C. under vacuum of around 60 mm/Hg for a couple of hours; theoretical water 2.43%
From the text: Levofloxacin hemihydrate contains a theoretical amount of water of 2.43%.

[3] = hemihydrate compared with monohydrate; cited from earlier work
[4] = test system: gram-positive and gram-negative bacteria; conditions: cited from earlier work

Compound | drying temperature at which crystal water is lost (anhydrous form results) ([1]; under atmospheric pressure) | drying temperature at which crystal water is lost (anhydrous form results) ([1]; under reduced pressure) | water lost by drying [2] | phase stability as a drug substance [3] | potency in inhibiting the multiplication of bacteria relative to its (+)-enantiomer ([4]; gram-positive and gram-negative bacteria, versus (+)-enantiomer) | activity relative to its racemate, ofloxacine ([4]; versus racemate)
C[C@H]1COc2c(N3CCN(C)CC3)c(F)cc3c(=O)c(C(=O)O)cn1c23 [Levofloxacin hemihydrate, (−)-(S)-9-fluoro-3-methyl-10-(4-methyl-1-piperazinyl)-7-oxo-2,3-dihydro-7H-pyrido-[1,2,3-de] [1,4] benzoxazine-6-carboxylic acid hemihydrate] | around 70 °C | around 60 °C | 0.20-0.30% | superior to the monohydrate | – | –
C[C@H]1COc2c(N3CCN(C)CC3)c(F)cc3c(=O)c(C(=O)O)cn1c23 [Levofloxacin, (S)-9-fluoro-3-methyl-10-(4-methyl-1-piperazinyl)-7-oxo-2,3-dihydro-7H-pyrido-[1,2,3-de][1,4]benzoxazine-6-carboxylic acid] | – | – | – | – | 8-128 times | approximately 2 times
